Source: the NIST ThermoML archive (doi:10.1021/je700672f)
Numbers after ± are expanded uncertainties.

Tests used:
[1] = 101 kPa, Liquid
[2] = xn = mol fraction of the nth substance listed; settings: 101 kPa, Liquid, x2 = 0

OCCOCCO [diethylene glycol]
[1]
Settings | mass density [kg/m3] | viscosity [mPa·s]
283.15 K | 1124.24 ± 0.73 | –
288.15 K | 1120.65 ± 0.72 | –
293.15 K | 1117.05 ± 0.71 | 36.43 ± 0.35
298.15 K | 1113.47 ± 0.7 | –
303.15 K | 1109.88 ± 0.69 | 22.09 ± 0.22
308.15 K | 1106.29 ± 0.68 | –
313.15 K | 1102.7 ± 0.67 | 14.56 ± 0.15
318.15 K | 1099.11 ± 0.66 | –
323.15 K | 1095.51 ± 0.65 | 10.03 ± 0.11
328.15 K | 1091.91 ± 0.64 | –
333.15 K | 1088.3 ± 0.63 | 7.22 ± 0.08
338.15 K | 1084.68 ± 0.62 | –
343.15 K | 1081.05 ± 0.61 | 5.369 ± 0.063
348.15 K | 1077.4 ± 0.6 | –
353.15 K | 1073.74 ± 0.59 | 4.139 ± 0.05

O [water] + OCCOCCO
[2]
Settings | mass density [kg/m3] | viscosity [mPa·s]
283.15 K | 999.7 ± 0.19 | –
293.15 K | – | 1.013 ± 0.014
303.15 K | 995.55 ± 0.2 | 0.811 ± 0.012
313.15 K | – | 0.667 ± 0.011
323.15 K | 988.03 ± 0.21 | 0.561 ± 0.011
328.15 K | 985.69 ± 0.22 | –
333.15 K | 983.19 ± 0.23 | 0.477 ± 0.01
338.15 K | 980.55 ± 0.23 | –
343.15 K | 977.76 ± 0.24 | 0.413 ± 0.01
348.15 K | 974.84 ± 0.25 | –
353.15 K | 971.79 ± 0.25 | 0.362 ± 0.009
